Here are results for five compounds from article PMC12751000, “Dual Agonist/Antagonist Modulation of α9-Containing Nicotinic Acetylcholine Receptors by 2‑Ammoniumethyl Ethers of Stilbenol and Stilbenol Analogues” (Journal of Medicinal Chemistry, 2025).

“Also recorded” adds a separate entry of the source. Read-outs that look alike come from different tables or passages of the source. Where a SMILES comes first, the peptide text is derived from it. Bridges are numbered along the chain shown (N, C = ends).

For experiment [1], the system named is BzATP-induced release of IL-1β from human monocytic THP-1 cells. As to the kind of experiment: BzATP-induced IL-1β release by LPS-primed human monocytic THP-1 cells (ELISA). It is filed as cell-based. The following applies: for Effect on the inhibitory effect of ACh on BzATP-induced IL-1β release: LPS 1 μg/mL 5 h, BzATP 100 μM 40 min; for Effect on BzATP-induced IL-1β release in the absence of ACh: LPS-primed THP-1. The procedure:
THP-1 cells were primed with lipopolysaccharide (LPS; 1 μg/mL, 5 h) followed by stimulation with the P2X7 receptor agonist BzATP (2′/3′-O-(4-benzoylbenzoyl)-adenosine-5′-triphosphate, tri(triethylammonium) salt) for 40 min to induce IL-1β release, which was quantified by ELISA.
Experiments on human monocytic THP-1 cells (German Collection of Microorganisms and Cell Cultures, Braunschweig, Germany, Cat# ACC16) were performed as described before. […] The supernatants were collected and stored for later IL-1β measurements using the Human IL-1β/IL-1F2 DuoSet ELISA from R&D Systems (Minneapolis MN, USA, Cat# DY201). Cell viability was assessed by measuring lactate dehydrogenase (LDH) activity in the supernatants using the CytoTox 96 Non-Radioactive Cytotoxicity Assay (Promega, Madison WI, USA; Cat# G1780). LDH activities were expressed as a percentage of total LDH activity from lysed control cells. Data on the BzATP-induced IL-1β release and LDH activity were analyzed using SPSS (Version 29.0.2.0, IBM, Armonk, NY, United States) and visualized using Inkscape version 0.48.5 r10040 (Free and Open Source Software licensed under the GPL). The data were analyzed first by the Friedman test.

Another experiment has as its system chick α7 nAChRs. To be noted: cited from earlier work.
A further experiment concerns the target α7-nAChR. The following applies: read-out: α7-nAChR affinity (Ki); ref: previously reported, citation number not given; cited from earlier work.
The next experiment deals with hα7. To be noted: ref: more recent studies, citation number not given, cited from earlier work.
The target of experiment [2] is T1, hα9α10 nAChRs (Homo sapiens, UniProt Q9GZZ6+Q9UGM1).
T1 construct: host or cells: Xenopus laevis oocytes, cRNA-injected (α9:α10 cRNA ratio 1:1)
As to the kind of experiment: Two-electrode voltage clamp, inhibition of ACh-evoked currents at hα9α10 nAChRs expressed in Xenopus laevis oocytes. It counts as cell-based. The following applies: for n H (Hill coefficient of inhibition) / IC50: 6 μM ACh; for IC50: 5 min preincubation with compound, holding potential −80 mV. From the text:
(§1) The protocols were approved by the Animal Ethics Committees of the Victor Chang Cardiac Research Institute, Sydney, and the University of Wollongong (project number AE 20/17). Human α9 and α10 nAChR clones were obtained from OriGene (Rockville, MD, USA) and subcloned into the pT7TS vector. The human α7 nAChR clone, in the plasmid pMXT, was kindly provided by J. Lindstrom (University of Pennsylvania, USA). Constructs of human nAChR subunits were linearized and used for in vitro cRNA transcription with the SP6/T7 mMessage mMachine transcription kit (AMBION, Forster City, CA, USA).
(§2) The cRNA concentration was verified spectrophotometrically and by gel electrophoresis.
(§3) Electrophysiological recordings were conducted 2–5 days after cRNA injection using a HiClamp automated two-electrode voltage-clamp screening system (MultiChannel Systems GmbH, Reutlingen, Germany) with a holding potential of –80 mV. To prevent the activation of endogenous Ca^2+-activated chloride channels due to the Ca^2+ permeability of α9-containing nAChRs, oocytes were preincubated with 100 μM BAPTA-AM for approximately 3 h.
For concentration–response experiments assessing modulation of ACh-evoked responses, oocytes were initially superfused with ND96 or ND115 solution, depending on the receptor subtype. […] After ACh application, a 3 min washout was performed. Oocytes were then incubated with the test compound for 5 min, followed by coapplication of the compound and ACh in a continuously flowing bath solution. All compounds were prepared in ND96 or ND115 with 0.1% bovine serum albumin (BSA).
On the technique in general: Two-electrode voltage clamp is typically applied to oocytes expressing channels or transporters.

Experiment [3] deals with T1, hα9α10 nAChRs. As to the kind of experiment: Two-electrode voltage clamp, compound-evoked currents (compound applied alone) at hα9α10 nAChRs in Xenopus laevis oocytes. It counts as cell-based. The following applies: for EC50: compound applied alone (300 pM to 30 μM), normalized to response at highest concentration.
Excerpt: as §1, §2, §3
Concentration–response experiments assessing compound-evoked currents were performed by initially superfusing α9-containing nAChRs oocytes with ND115 solution. Test compounds were then applied at concentrations ranging from 300 pM to 30 μM, followed by a 3 min washout period.

The target of experiment [4] is T2, hα9 nAChRs (Homo sapiens, UniProt Q9UGM1).
T2 construct: host or cells: Xenopus laevis oocytes, cRNA-injected
As to the kind of experiment: Two-electrode voltage clamp, inhibition of ACh-evoked currents at hα9 nAChRs in Xenopus laevis oocytes. To be noted: for n H (Hill coefficient of inhibition) / IC50: 50 μM ACh; for IC50: 5 min preincubation. It is filed as cell-based.

Experiment [5] has as its target T2, hα9 nAChRs. Nature of the experiment: Two-electrode voltage clamp, compound-evoked currents at hα9 nAChRs in Xenopus laevis oocytes. It is filed as cell-based.
In experiment [6] the target is T3, hα7 nAChRs (Homo sapiens, UniProt P36544).
T3 construct: host or cells: Xenopus laevis oocytes, cRNA-injected (10 ng)
Nature of the experiment: Two-electrode voltage clamp, inhibition of ACh-evoked currents at hα7 nAChRs in Xenopus laevis oocytes. It counts as cell-based. The following applies: for n H (Hill coefficient of inhibition) / IC50: 100 μM ACh; for IC50: 5 min preincubation.

For experiment [7], the target named is T3, hα7 nAChRs. Nature of the experiment: Two-electrode voltage clamp, compound-evoked currents at hα7 nAChRs in Xenopus laevis oocytes. It counts as cell-based. The following applies: compound applied alone. The procedure: Additionally, five compounds of the series were tested on the homomeric hα7 and hα9 nAChRs.
as §1, §2, §3

In experiment [8] the target is T1, hα9α10 nAChRs. Nature of the experiment: cell-based.

T3 sequence (P36544 23-502): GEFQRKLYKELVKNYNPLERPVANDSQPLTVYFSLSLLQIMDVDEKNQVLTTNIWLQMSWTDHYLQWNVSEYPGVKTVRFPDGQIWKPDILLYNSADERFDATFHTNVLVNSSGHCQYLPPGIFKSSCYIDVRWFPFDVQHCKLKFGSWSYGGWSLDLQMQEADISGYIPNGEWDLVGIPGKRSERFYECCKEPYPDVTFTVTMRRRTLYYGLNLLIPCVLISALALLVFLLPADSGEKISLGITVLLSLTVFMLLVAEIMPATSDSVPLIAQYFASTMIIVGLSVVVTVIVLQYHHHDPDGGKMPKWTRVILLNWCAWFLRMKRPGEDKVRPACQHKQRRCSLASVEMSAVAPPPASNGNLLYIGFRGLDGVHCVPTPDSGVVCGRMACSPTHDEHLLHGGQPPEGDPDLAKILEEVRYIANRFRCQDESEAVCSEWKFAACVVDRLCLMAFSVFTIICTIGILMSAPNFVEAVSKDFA
T1 sequence (Q9UGM1 26-479 limits assumed): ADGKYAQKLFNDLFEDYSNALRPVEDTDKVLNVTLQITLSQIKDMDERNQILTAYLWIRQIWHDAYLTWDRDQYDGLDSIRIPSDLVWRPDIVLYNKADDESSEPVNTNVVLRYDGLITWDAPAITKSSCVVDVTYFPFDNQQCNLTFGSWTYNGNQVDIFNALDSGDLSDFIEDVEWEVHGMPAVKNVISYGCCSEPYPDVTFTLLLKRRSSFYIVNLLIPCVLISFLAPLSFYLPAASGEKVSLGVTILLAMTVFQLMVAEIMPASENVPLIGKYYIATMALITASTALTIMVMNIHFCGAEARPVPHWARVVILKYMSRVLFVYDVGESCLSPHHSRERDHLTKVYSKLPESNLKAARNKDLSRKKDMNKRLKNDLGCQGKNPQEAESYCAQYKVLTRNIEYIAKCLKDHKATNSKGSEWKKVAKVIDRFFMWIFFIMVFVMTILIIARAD
T1 sequence (Q9GZZ6 25-450): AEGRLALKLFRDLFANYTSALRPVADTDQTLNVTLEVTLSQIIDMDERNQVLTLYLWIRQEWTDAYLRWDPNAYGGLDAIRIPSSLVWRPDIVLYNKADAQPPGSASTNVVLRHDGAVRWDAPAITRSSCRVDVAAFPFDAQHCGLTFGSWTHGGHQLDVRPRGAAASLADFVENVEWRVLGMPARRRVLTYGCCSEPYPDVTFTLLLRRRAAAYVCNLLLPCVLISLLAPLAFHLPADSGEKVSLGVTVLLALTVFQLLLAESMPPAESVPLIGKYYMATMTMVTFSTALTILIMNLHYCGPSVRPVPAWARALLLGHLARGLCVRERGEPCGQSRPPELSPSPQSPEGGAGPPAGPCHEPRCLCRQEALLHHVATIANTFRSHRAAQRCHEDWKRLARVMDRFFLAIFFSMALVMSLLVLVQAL
T2 sequence (Q9UGM1 26-479 limits assumed): as the sequence (Q9UGM1 26-479 limits assumed) above

Broadly, the IC50 is the midpoint of a concentration-inhibition curve. By Ki is commonly meant a dissociation constant, usually derived from enzyme kinetics or from competition with a known ligand. For `CC[N+](CC)(CC)CCOc1ccc(/C=C/c2ccccc2)cc1` [Compound 1, 2-triethylammonium ethyl ether of 4-stilbenol], the “Effect on the inhibitory effect of ACh on BzATP-induced IL-1β release” value (“Effect on the inhibitory effect of ACh” for short) in experiment [1] (compound 100 pM + ACh 10 μM) and in experiment [1] (compound 100 nM + ACh 10 μM) was “efficiently antagonized the inhibitory effect of ACh” each time. Moreover, the entries for the “Effect on BzATP-induced IL-1β release in the absence of ACh” value (“Effect on BzATP-induced IL-1β release” for short) in experiment [1] (compound 100 pM) and in [1] (compound 100 nM) were “only slightly reduced” and “only slightly reduced; also recorded: failed to reduce IL-1β release”, respectively. Further, the half-inhibitory concentration (IC50) in the experiment with chick α7 nAChRs (chick α7, 100 μM ACh, ref: citation number not given) is 90 to 110 nM; in the experiment with hα7 (200 μM ACh), 41 nM; in the experiment on hα7 (1 mM ACh) it was 1990 nM. Besides, in the experiment with chick α7 nAChRs (wild-type chick α7 nAChRs, ref: previous findings, citation number not given), the “Currents evoked when applied alone” value is given as “did not evoke currents”. At α7-nAChR, the Ki was 104 nM.
Usually EC50 stands for the concentration needed to bring the measured effect to its halfway point. Turning to `C[N+](C)(CCOc1ccc(OCc2ccccc2)cc1)C1CCCCC1.[I-]` [Compound 21, N-(2-(4-(Benzyloxy)phenoxy)ethyl)-N,N-dimethylcyclohexanaminium Iodide], the “IC50 ratio to Cpd 1” value at hα9α10 nAChRs [2] is recorded as 0.6; at hα9 nAChRs [4] it was 0.9; at hα7 nAChRs [6], 1.0. Further, the “n H (Hill coefficient of inhibition)” value at hα9α10 nAChRs [2] amounted to 1.7; at hα9 nAChRs [4], 1.6; on hα7 nAChRs [6], 1.5. For the same compound, the IC50 came to 39.1 nM at hα9α10 nAChRs [2], 171 nM at hα9 nAChRs [4] and 419 nM against hα7 nAChRs [6]. The “EC50 ratio to Cpd 1” value on hα9α10 nAChRs [3] was 0.9; on hα9 nAChRs [5], 1.0. Also, the figures for the “n H (Hill coefficient of activation)” value on hα9α10 nAChRs [3] (compound applied alone) and on hα9 nAChRs [5] (compound applied alone) were 3.7 and 2.2, respectively. In addition, the concentration giving a half-maximal response (EC50) at hα9α10 nAChRs [3] (read-out: EC50) was 338 nM; at hα9 nAChRs [5] (compound applied alone, read-out: EC50) it was 905 nM; on hα7 nAChRs [7] it was “No activity”. In addition, the “Effect on the inhibitory effect of ACh” value is given as “efficiently antagonized the inhibitory effect of ACh” in [1] (compound 100 pM + ACh 10 μM) and “mild antagonistic effects” in [1] (compound 100 nM + ACh 10 μM). Also, the “Effect on BzATP-induced IL-1β release” value in experiment [1] (compound 100 pM) is “minor reduction”; in experiment [1] (compound 100 nM) it was “effectively and significantly inhibited”.
With `C[N+](C)(CCOc1ccc(COc2ccccc2)cc1)C1CCCCC1.[I-]` [Compound 22, N,N-Dimethyl-N-(2-(4-(phenoxymethyl)phenoxy)ethyl)cyclohexanaminium Iodide], the entries for the “IC50 ratio to Cpd 1” value at hα9α10 nAChRs [2], at hα9 nAChRs [4] and at hα7 nAChRs [6] were 0.3, 0.1 and 0.8, respectively. In addition, the figures for the “n H (Hill coefficient of inhibition)” value at hα9α10 nAChRs [2], at hα9 nAChRs [4] and on hα7 nAChRs [6] were 1.7, 1.5 and 1.5, respectively. Also, the results for the IC50 on hα9α10 nAChRs [2], against hα9 nAChRs [4] and at hα7 nAChRs [6] were 16 nM, 26.2 nM and 336 nM, respectively. Besides, the figures for the EC50 result on hα9α10 nAChRs [3], on hα9 nAChRs [5] (compound applied alone) and at hα7 nAChRs [7] were “failed to activate; also recorded: lacked agonist activity; also recorded: No activity”, “did not elicit any current; also recorded: lacked agonist activity; also recorded: No activity” and “lacked agonist activity; also recorded: No activity”, respectively. In addition, the “Effect on the inhibitory effect of ACh” value in experiment [1] (compound 100 pM + ACh 10 μM) is listed as “efficiently antagonized the inhibitory effect of ACh”; in experiment [1] (compound 100 nM + ACh 10 μM) it was “mild antagonistic effects”. Besides, the “Effect on BzATP-induced IL-1β release” value was “minor reduction” in experiment [1] (compound 100 pM); “effectively and significantly inhibited” in experiment [1] (compound 100 nM).
`CC[C@H](C)[C@@H]1NC(=O)[C@H](CC(=O)O)NC(=O)[C@@H]2CCCN2C(=O)[C@H](CC(N)=O)NC(=O)[C@H](CC(N)=O)NC(=O)[C@H](C(C)C)NC(=O)[C@H](CO)NC(=O)[C@@H]2CSSC[C@H](NC(=O)CN)C(=O)N[C@@H](CSSC[C@@H](C(N)=O)NC1=O)C(=O)N[C@@H](CO)C(=O)N[C@@H](Cc1c[nH]cn1)C(=O)N1CCC[C@H]1C(=O)N[C@@H](C)C(=O)N2` [α-conotoxin Mr1.1] (H-GCCSHPACSVNNPDIC-NH2; disulfide 2-8, 3-16): on hα9α10 nAChRs [8], the “Hill coefficient (n H)” value amounted to 1.3.
The compound `CC[C@H](C)[C@@H]1NC(=O)[C@H](CC(=O)O)NC(=O)[C@@H]2CCCN2C(=O)[C@H](CC(N)=O)NC(=O)[C@H](CC(N)=O)NC(=O)[C@H](C(C)C)NC(=O)[C@H](CO)NC(=O)[C@@H]2CSSC[C@H](NC(=O)CN)C(=O)N[C@@H](CSSC[C@@H](C(N)=O)NC1=O)C(=O)N[C@@H](CO)C(=O)N[C@@H](Cc1cnc[nH]1)C(=O)N1CCC[C@H]1C(=O)N[C@@H](C)C(=O)N2` [α-conotoxin Mr1.1] (H-GCCSHPACSVNNPDIC-NH2; disulfide 2-8, 3-16) showed an IC50 at hα9α10 nAChRs [8] of 82.9 nM.
